The text below walks through data of patent publication US20220233605A1, “METHODS OF MAKING AND USING LIVER CELLS” (University Health Network, priority 2019, published 2022).

Entries after “also recorded” stand apart in the source; their conditions may differ.

What all share (assay type): cell-based, human
Data set [1] relates to hPSC-derived hepatocytes. The experiment in a line: Maturation of hPSC-derived hepatocytes: AFP expression by flow cytometry and qRT-PCR. The conditions noted are these: added days 38 to 56, aggregates, 40 ng/ml dexamethasone.
Procedure: For these studies, T3 was added to the cultures during the maturation step, from days 38 to 56. During this stage, the cells are cultured as aggregate in the presence of 40 ng/ml dexamethasone, as previously described.
The test system of the next data set is CFTR expression. The experiment in a line: Induction of CFTR expression in hepatoblasts differentiated to cholangiocytes in monolayer (co-culture with OP9-Jag1). Conditions: hepatoblasts co-cultured with OP9-Jag1, monolayer, 6 days. The protocol: OP9 cells were maintained as described previously. 30 Gray irradiated OP9 cells were plated on 2.5% Matrigel coated wells (12 well plates) at a concentration of 200,000 cells per well in alpha-modified minimum essential media (a-MEM) supplemented with glutamine (2 mM) and 20% fetal bovine serum. To induce the cholangiocytes differentiation, day 27 hepatoblasts were dissociated using collagenase type I enzyme and then plated onto the irradiated OP9 cells. The plated cells were cultured in H21 DMEM/Ham's F12 (3:1) media supplemented with 0.1% BSA, 1% vol/vol B27 supplement, ascorbic acid, glutamine, MTG, HGF (20 ng/ml), and epidermal growth factor (EGF, 50 ng/ml) for 4 days. […] To promote the maturation of cholangiocytes that express primary cilia and 4D9, the cells were cultured with DMEM/F12 medium with 0.1% BSA, 1% vol/vol B27 supplement, ascorbic acid, glutamine, MTG, Noggin (50 ng/ml), ROCK inhibitor Y-27632 (5 μM) and Forskolin (FSK, 5 μM) for 12 days. The medium for all steps of cholangiocytes differentiation were changed every two days. The cells were maintained in an ambient O2 incubator.
It has previously been reported that it is possible to generate cholangiocytes that express a number of markers that are indicative of mature cells including the cystic fibrosis transmembrane conductance regulator (CFTR) gene, in which mutations cause cystic fibrosis. The development of mature cholangiocytes was dependent on growth of the cells as cysts in 3D semi-solid cultures consisting of Matrigel and collagen. While this approach yielded relatively mature cholangiocytes, the culture system was not amenable to cell expansion or high throughput screening (e.g., for drugs against cystic fibrosis and other biliary diseases). To improve the differentiation efficiency in monolayer cultures, a panel of cytokines and small molecules that are known to play a role in bile duct development were screened to identify those that would promote the upregulation of CFTR expression as an indication of maturation. Since Notch signaling is required for the production of cholangiocytes, hepatoblasts were cultured on either OP9-Jagl cells or Matrigel for 6 days as previously described. […] To further investigate the role of RA signaling, the effects of specific RA receptor agonists as well as a pan antagonist also were tested.

The test system of data set [2] is hPSC-derived hepatocytes. The experiment in a line: Zonation of hPSC-derived hepatocytes by Wnt manipulation (gene expression). Conditions: added days 38 to 56 with T3. The protocol:
Day 27 hepatoblasts were cultured in DMEM/F12 (50:50) with 0.2% BSA, 1% vol/vol ITS-X, ascorbic acid, glutamine, MTG, Dex (40 ng/ml), and OSM (5 ng/ml) for 6 days in monolayer. Day 33 hepatoblasts were dissociated using collagenase type 1 enzyme to make a small cluster of hepatoblasts. The dissociated small clusters were maintained in a low cluster culture dish and cultured in DMEM/F12 (50:50) medium supplemented with 0.2% BSA, 1% vol/vol ITS-X, ascorbic acid, 1% vol/vol chemically defined lipid mix medium (Thermo Fisher Scientific), 0.5% vol/vol B27, glutamine, MTG, Dex (40 ng/ml), and CHIR99021 (1 μM) for 6 days to promote the maturation in 3D aggregates. […]

Data set [3] deals with hPSC-derived cholangiocytes. Description: Flow cytometric screen for DHC5-4D9 reactive mature cholangiocytes in monolayer. Conditions: added to cultures for 6 days, flow cytometry. In general terms: A flow cytometer gives signals particle by particle.
Procedure: 30 Gray irradiated OP9 cells were plated on 2.5% Matrigel coated wells (12 well plates) at a concentration of 200,000 cells per well in alpha-modified minimum essential media (a-MEM) supplemented with glutamine (2 mM) and 20% fetal bovine serum. To induce the cholangiocytes differentiation, day 27 hepatoblasts were dissociated using collagenase type I enzyme and then plated onto the irradiated OP9 cells. The plated cells were cultured in H21 DMEM/Ham's F12 (3:1) media supplemented with 0.1% BSA, 1% vol/vol B27 supplement, ascorbic acid, glutamine, MTG, HGF (20 ng/ml), and epidermal growth factor (EGF, 50 ng/ml) for 4 days. […] To promote the maturation of cholangiocytes that express primary cilia and 4D9, the cells were cultured with DMEM/F12 medium with 0.1% BSA, 1% vol/vol B27 supplement, ascorbic acid, glutamine, MTG, Noggin (50 ng/ml), ROCK inhibitor Y-27632 (5 μM) and Forskolin (FSK, 5 μM) for 12 days. […]
To identify pathways that promote further maturation of the hPSC-derived cholangiocytes, a screening approach was used based on flow cytometric identification of cells that express the epitope recognized by the antibody DHCS-4D9, which stains mature bile ductal cells (cholangiocytes) in the adult liver. […] Following this maturation step, the cells were harvested and analyzed by flow cytometry for reactivity with DHC5-4D9.

For `N[C@@H](Cc1cc(I)c(Oc2ccc(O)c(I)c2)c(I)c1)C(=O)O` [T3, Triiodothyronine], the “levels of AFP expression” value in the data set on hPSC-derived hepatocytes [1] is “dramatic decrease in the levels of AFP expression; also recorded: significantly lower than the levels observed in cells treated with cAMP”.

On to `CCCCCCCCc1ccc(-c2ccc(C(=O)O)cc2)cc1` [AC55649], for which, in the data set with CFTR expression, the CFTR expression result is “induced CFTR expression”.

`Cc1c[nH]c(-c2cnc(NCCNc3ccc(C#N)cn3)nc2-c2ccc(Cl)cc2Cl)n1` [CHIR, 6-[[2-[[4-(2,4-Dichlorophenyl)-5-(5-methyl-1H-imidazol-2-yl)-2-pyrimidinyl]amino]ethyl]amino]-3-pyridinecarbonitrile]: in the data set with hPSC-derived hepatocytes [2], the “zonal gene expression of hepatocytes” value is “expressed genes associated with Zone 3 hepatocytes”.

For the molecule AM580, in the data set on CFTR expression, the CFTR expression entry is given as “induced CFTR expression”.

In the case of `O=C(O)c1ccc2cc(-c3ccc(O)c(C45CC6CC(CC(C6)C4)C5)c3)ccc2c1` [CD437], the CFTR expression result in the data set with CFTR expression is listed as “induced CFTR expression”.

Take `CC1(C)CC=C(C#Cc2ccccc2)c2cc(/C=C/c3ccc(C(=O)O)cc3)ccc21` [BMS493]: in the data set on CFTR expression, the CFTR expression entry is reported as “inhibited the induction of CFTR expression”.

Regarding `Oc1nc(-c2ccc(C(F)(F)F)cc2)nc2c1CSCC2` [XAV], in the data set on hPSC-derived hepatocytes [2], the “zonal gene expression of hepatocytes” value is recorded as “expressed genes associated with Zone 1 hepatocytes”.

B1: N: Noggin, inhibition of the BMP pathway (protein, UniProt Q13253 28-232, looked up)
Noggin: QHYLHIRPAPSDNLPLVDLIEHPDPIFDPKEKDLNETLLRSLLGGHYDPGFMATSPPEDRPGGGGGAAGGAEDLAELDQLLRQRPSGAMPSEIKGLEFSEGLAQGKKQRLSKKLRRKLQMWLWSQTFCPVLYAWNDLGSRFWPRYVKVGSCFSKRSCSVPEGMVCKPSKSVHLTVLRWRCQRRGGQRCGWIPIQYPIISECKCSC
Turning to B1, the “development of DHC5-4D9 cells” value in data set [3] was “promoted the development of DHC5-4D9 cells”.
